Results taken from PubChem BioAssay AID1963975 (Molecular Pharmacology Branch, DTP, NCI, 2024).

Tested on: 624824-186-R-J2-PDC multicell spheroids, viability
Assay: Anticancer human tumor 624824-186-R-J2-PDC patient-derived colon adenocarcinoma cell line growth inhibition [PI3K]
Details: for IC50: curve of first compound; for viability, T/C: stronger effect = lower value
How it was run: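 Stroma-containing spheroids: tumor line, pooled-donor HUVEC, hMSC. Treatments: targeted agents with PI3K inhibitors. Dosing: clinically relevant, half-log spacing, 10 microM ceiling without known Cmax. Read-out: cell viability.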

[1] = second compound 0.0316 µM, first compound 0.0316 µM
[2] = second compound 0.0316 µM, first compound 0.1 µM
[3] = second compound 0.0316 µM, first compound 0.316 µM
[4] = second compound 0.0316 µM, first compound 1 µM
[5] = second compound 0.0316 µM, first compound 3.16 µM
[6] = second compound 0.0316 µM, first compound 10 µM
[7] = second compound 0.1 µM, first compound 0.0316 µM
[8] = second compound 0.1 µM, first compound 0.1 µM
[9] = second compound 0.1 µM, first compound 0.316 µM
[10] = second compound 0.1 µM, first compound 1 µM
[11] = second compound 0.1 µM, first compound 3.16 µM
[12] = second compound 0.1 µM, first compound 10 µM
[13] = second compound 0.316 µM, first compound 0.0316 µM
[14] = second compound 0.316 µM, first compound 0.1 µM
[15] = second compound 0.316 µM, first compound 0.316 µM
[16] = second compound 0.316 µM, first compound 1 µM
[17] = second compound 0.316 µM, first compound 3.16 µM
[18] = second compound 0.316 µM, first compound 10 µM
[19] = second compound 1 µM, first compound 0.0316 µM
[20] = second compound 1 µM, first compound 0.1 µM
[21] = second compound 1 µM, first compound 0.316 µM
[22] = second compound 1 µM, first compound 1 µM
[23] = second compound 1 µM, first compound 3.16 µM
[24] = second compound 1 µM, first compound 10 µM
[25] = second compound 3.16 µM, first compound 0.0316 µM
[26] = second compound 3.16 µM, first compound 0.1 µM
[27] = second compound 3.16 µM, first compound 0.316 µM
[28] = second compound 3.16 µM, first compound 1 µM
[29] = second compound 3.16 µM, first compound 3.16 µM
[30] = second compound 3.16 µM, first compound 10 µM
[31] = second compound 10 µM, first compound 0.0316 µM
[32] = second compound 10 µM, first compound 0.1 µM
[33] = second compound 10 µM, first compound 0.316 µM
[34] = second compound 10 µM, first compound 1 µM
[35] = second compound 10 µM, first compound 3.16 µM
[36] = second compound 10 µM, first compound 10 µM
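Further: spheroids exposed to agents for 7 days before viability read.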
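Wherever viability, T/C is given: 100% = DMSO vehicle treated spheroids.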

Question: Which results are given for CC1(C)CCC(Nc2ncc(C(F)(F)F)c(-c3c[nH]c4c(P(C)(C)=O)c(C#N)ccc34)n2)CN1 (centres undefined) + Cc1nc(NC(=O)N2CCCC2C(N)=O)sc1-c1ccnc(C(C)(C)C(F)(F)F)c1?
Answer: IC50 (second compound 0.0316 µM): 4.26 µM; IC50 (second compound 0.1 µM): 4.34 µM; IC50 (second compound 0.316 µM): 4.4 µM; IC50 (second compound 1 µM): 4.64 µM; IC50 (second compound 3.16 µM): 3.67 µM; IC50 (second compound 10 µM): 1.61 µM; viability, T/C [1]: 81.3%; viability, T/C [2]: 99.4%; viability, T/C [3]: 103%; viability, T/C [4]: 121%; viability, T/C [5]: 64.8%; viability, T/C [6]: 7.6%; viability, T/C [7]: 92.7%; viability, T/C [8]: 92.9%; viability, T/C [9]: 99.4%; viability, T/C [10]: 108%; viability, T/C [11]: 66.1%; viability, T/C [12]: 7.74%; viability, T/C [13]: 100%; viability, T/C [14]: 81.8%; viability, T/C [15]: 92.1%; viability, T/C [16]: 115%; viability, T/C [17]: 67.6%; viability, T/C [18]: 6.46%; viability, T/C [19]: 96%; viability, T/C [20]: 93.4%; viability, T/C [21]: 97.7%; viability, T/C [22]: 93.6%; viability, T/C [23]: 72%; viability, T/C [24]: 5.53%; viability, T/C [25]: 79%; viability, T/C [26]: 83.8%; viability, T/C [27]: 91.4%; viability, T/C [28]: 74%; viability, T/C [29]: 57.3%; viability, T/C [30]: 5.49%; viability, T/C [31]: 77.8%; viability, T/C [32]: 73.8%; viability, T/C [33]: 62%; viability, T/C [34]: 54.5%; viability, T/C [35]: 45.2%; viability, T/C [36]: 6.69%

Question: For CC(Cn1ccc(-c2ccc(C#N)c(Cl)c2)n1)NC(=O)c1cc(C(C)O)[nH]n1 (centres undefined) + Cc1nc(NC(=O)N2CCCC2C(N)=O)sc1-c1ccnc(C(C)(C)C(F)(F)F)c1, which IC50 (second compound 0.0316 µM) is on record?
Answer: Its IC50 is over 10 µM.

Question: And the IC50 (second compound 0.1 µM)?
Answer: The IC50 was over 10 µM.

Question: What about the IC50 (second compound 0.316 µM) of the same compound?
Answer: Its IC50 is over 10 µM.

Question: And the IC50 (second compound 1 µM)?
Answer: The IC50 was over 10 µM.

Question: And the IC50 (second compound 3.16 µM)?
Answer: Its IC50 is over 10 µM.

Question: And the IC50 (second compound 10 µM)?
Answer: The IC50 was over 10 µM.

Question: What about the viability, T/C [1] of the same compound?
Answer: Its viability, T/C is 85.3%.

Question: What about the viability, T/C [2] of the same compound?
Answer: Its viability, T/C is 111%.

Question: And the viability, T/C [3]?
Answer: The viability, T/C was 70.8%.

Question: What about the viability, T/C [4] of the same compound?
Answer: Its viability, T/C is 92.2%.

Question: And the viability, T/C [5]?
Answer: The viability, T/C was 93.3%.

Question: What about the viability, T/C [6] of the same compound?
Answer: Its viability, T/C is 114%.

Question: And the viability, T/C [7]?
Answer: The viability, T/C was 102%.

Question: What about the viability, T/C [8] of the same compound?
Answer: The viability, T/C was 76.3%.

Question: And the viability, T/C [9]?
Answer: Its viability, T/C is 74.3%.

Question: And the viability, T/C [10]?
Answer: The viability, T/C was 76.6%.

Question: What about the viability, T/C [11] of the same compound?
Answer: The viability, T/C was 88.2%.

Question: What about the viability, T/C [12] of the same compound?
Answer: The viability, T/C was 90%.

Question: What about the viability, T/C [13] of the same compound?
Answer: The viability, T/C was 96.9%.

Question: And the viability, T/C [14]?
Answer: The viability, T/C was 90.5%.

Question: What about the viability, T/C [15] of the same compound?
Answer: The viability, T/C was 86.1%.

Question: What about the viability, T/C [16] of the same compound?
Answer: The viability, T/C was 76.9%.

Question: What about the viability, T/C [17] of the same compound?
Answer: Its viability, T/C is 82.5%.

Question: And the viability, T/C [18]?
Answer: Its viability, T/C is 85.7%.

Question: And the viability, T/C [19]?
Answer: Its viability, T/C is 88.6%.

Question: And the viability, T/C [20]?
Answer: Its viability, T/C is 69.9%.

Question: What about the viability, T/C [21] of the same compound?
Answer: Its viability, T/C is 71.5%.

Question: What about the viability, T/C [22] of the same compound?
Answer: Its viability, T/C is 71.6%.

Question: What about the viability, T/C [23] of the same compound?
Answer: The viability, T/C was 87.9%.

Question: What about the viability, T/C [24] of the same compound?
Answer: Its viability, T/C is 86.9%.

Question: What about the viability, T/C [25] of the same compound?
Answer: Its viability, T/C is 80.5%.

Question: And the viability, T/C [26]?
Answer: Its viability, T/C is 93%.

Question: What about the viability, T/C [27] of the same compound?
Answer: Its viability, T/C is 89.7%.

Question: What about the viability, T/C [28] of the same compound?
Answer: The viability, T/C was 78.7%.

Question: What about the viability, T/C [29] of the same compound?
Answer: Its viability, T/C is 80.2%.

Question: And the viability, T/C [30]?
Answer: The viability, T/C was 84.7%.

Question: What about the viability, T/C [31] of the same compound?
Answer: Its viability, T/C is 64.8%.

Question: And the viability, T/C [32]?
Answer: Its viability, T/C is 65.2%.

Question: What about the viability, T/C [33] of the same compound?
Answer: Its viability, T/C is 74.8%.

Question: What about the viability, T/C [34] of the same compound?
Answer: The viability, T/C was 61.4%.

Question: What about the viability, T/C [35] of the same compound?
Answer: Its viability, T/C is 69.6%.

Question: What about the viability, T/C [36] of the same compound?
Answer: Its viability, T/C is 66.6%.
